Test system: MV-4-11 cells
Assay: Gene expression microarray analysis (Affymetrix PrimeView) and GSEA
Type: cell-based, human
Set-up: RFU PODN (11730768_x_at) / Fold change /veh PODN (11730768_x_at) / RFU LINC00158 (11744669_a_at) / Fold change /veh LINC00158 (11744669_a_at) / RFU DUSP10 (11751237_a_at) / Fold change /veh DUSP10 (11751237_a_at) / RFU ID3 (11757404_x_at) / Fold change /veh ID3 (11757404_x_at) / RFU PLEKHG5 (11737974_s_at) / Fold change /veh PLEKHG5 (11737974_s_at) / RFU LRRC4B (11730491_at) / Fold change /veh LRRC4B (11730491_at) / RFU GIMAP4 (11747438_a_at) / Fold change /veh GIMAP4 (11747438_a_at) / RFU KRT8 (11758183_x_at) / Fold change /veh KRT8 (11758183_x_at) / RFU CNN1 (11734310_a_at) / Fold change /veh CNN1 (11734310_a_at) / RFU VPS37D (11726825_at) / Fold change /veh VPS37D (11726825_at) / RFU C10orf10 (11716522_x_at) / Fold change /veh C10orf10 (11716522_x_at) / RFU KIR2DL2 /// KIR2DL4 /// KIR2DL5A /// KIR2DL5B /// KIR2DS1 /// KIR2DS2 /// KIR2DS3 /// KIR2DS4 /// KIR3DL3 /// KIR3DL3 /// KIR3DS1 (11738374_at) / Fold change /veh KIR2DL2 /// KIR2DL4 /// KIR2DL5A /// KIR2DL5B /// KIR2DS1 /// KIR2DS2 /// KIR2DS3 /// KIR2DS4 /// KIR3DL3 /// KIR3DL3 /// KIR3DS1 (11738374_at) / RFU C1QL1 (11718748_at) / Fold change /veh C1QL1 (11718748_at) / RFU TMPRSS4 (11747572_a_at) / Fold change /veh TMPRSS4 (11747572_a_at) / RFU HAMP (11756126_x_at) / Fold change /veh HAMP (11756126_x_at) / RFU RNFT2 (11725882_a_at) / Fold change /veh RNFT2 (11725882_a_at) / RFU NR4A2 (11747474_a_at) / Fold change /veh NR4A2 (11747474_a_at) / RFU ABCC12 (11746883_a_at) / Fold change /veh ABCC12 (11746883_a_at) / RFU TMEM136 (11760407_x_at) / Fold change /veh TMEM136 (11760407_x_at) / RFU CLDN22 /// WWC2 (11732394_at) / Fold change /veh CLDN22 /// WWC2 (11732394_at) / RFU HLA-DPB1 (11760878_x_at) / Fold change /veh HLA-DPB1 (11760878_x_at) / RFU SPINT1 (11716480_a_at) / Fold change /veh SPINT1 (11716480_a_at) / RFU GAP43 (11754022_s_at) / Fold change /veh GAP43 (11754022_s_at) / RFU A4GNT (11735810_at) / Fold change /veh A4GNT (11735810_at) / RFU PRB3 (11715151_x_at) / Fold change /veh PRB3 (11715151_x_at) / RFU TUBB4B (11761932_at) / Fold change /veh TUBB4B (11761932_at) / RFU CAPN14 (11732068_a_at) / Fold change /veh CAPN14 (11732068_a_at) / RFU TMCC2 (11721928_a_at) / Fold change /veh TMCC2 (11721928_a_at) / RFU IRGQ (11745062_a_at) / Fold change /veh IRGQ (11745062_a_at) / RFU FAM174B (11720279_a_at) / Fold change /veh FAM174B (11720279_a_at) / RFU TMPRSS4 (11748680_a_at) / Fold change /veh TMPRSS4 (11748680_a_at) / RFU FAM212B (11763350_a_at) / Fold change /veh FAM212B (11763350_a_at) / RFU PLEKHG5 (11743358_a_at) / Fold change /veh PLEKHG5 (11743358_a_at) / RFU ZSCAN30 (11745921_a_at) / Fold change /veh ZSCAN30 (11745921_a_at) / RFU CMKLR1 (11741424_a_at) / Fold change /veh CMKLR1 (11741424_a_at) / RFU LOC101060620 /// MAPK8IP1 (11723275_at) / Fold change /veh LOC101060620 /// MAPK8IP1 (11723275_at) / RFU SPTSSB (11747773_x_at) / Fold change /veh SPTSSB (11747773_x_at) / RFU PRSS12 (11739890_at) / Fold change /veh PRSS12 (11739890_at) / RFU BIN1 (11741810_x_at) / Fold change /veh BIN1 (11741810_x_at) / RFU WNT11 (11732464_a_at) / Fold change /veh WNT11 (11732464_a_at) / RFU C10orf10 (11716521_a_at) / Fold change /veh C10orf10 (11716521_a_at) / RFU C5orf56 (11738089_at) / Fold change /veh C5orf56 (11738089_at) / RFU CYB561 (11721691_x_at) / Fold change /veh CYB561 (11721691_x_at) / RFU ANKRD19P (11752326_a_at) / Fold change /veh ANKRD19P (11752326_a_at) / RFU OR2T12 /// OR2T33 /// OR2T8 (11738714_s_at) / Fold change /veh OR2T12 /// OR2T33 /// OR2T8 (11738714_s_at) / RFU VCAN (11748164_a_at) / Fold change /veh VCAN (11748164_a_at) / RFU JSRP1 (11732532_at) / Fold change /veh JSRP1 (11732532_at) / RFU KRTAP10-11 (11738290_x_at) / Fold change /veh KRTAP10-11 (11738290_x_at) / RFU MYO3A (11730013_a_at) / Fold change /veh MYO3A (11730013_a_at) / RFU EBF3 (11725865_a_at) / Fold change /veh EBF3 (11725865_a_at) / RFU CAMK2N1 (11719241_x_at) / Fold change /veh CAMK2N1 (11719241_x_at) / RFU C5orf56 (11738088_a_at) / Fold change /veh C5orf56 (11738088_a_at) / RFU OLFML3 (11715873_a_at) / Fold change /veh OLFML3 (11715873_a_at) / RFU LOC100653217 /// NTM (11731650_a_at) / Fold change /veh LOC100653217 /// NTM (11731650_a_at) / RFU MAPK11 (11762145_a_at) / Fold change /veh MAPK11 (11762145_a_at) / RFU FIZ1 (11724087_x_at) / Fold change /veh FIZ1 (11724087_x_at) / RFU OASL (11726364_x_at) / Fold change /veh OASL (11726364_x_at) / RFU SOX15 (11748057_x_at) / Fold change /veh SOX15 (11748057_x_at) / RFU CD79A (11719716_a_at) / Fold change /veh CD79A (11719716_a_at) / RFU HIST1H1D (11736915_at) / Fold change /veh HIST1H1D (11736915_at) / RFU CASKIN2 (11723855_a_at) / Fold change /veh CASKIN2 (11723855_a_at) / RFU LOC730098 (11760151_x_at) / Fold change /veh LOC730098 (11760151_x_at) / RFU OR4N2 (11742367_at) / Fold change /veh OR4N2 (11742367_at) / RFU PRRT2 (11749266_a_at) / Fold change /veh PRRT2 (11749266_a_at) / RFU SNX32 (11753110_a_at) / Fold change /veh SNX32 (11753110_a_at) / RFU CDHR5 (11726645_a_at) / Fold change /veh CDHR5 (11726645_a_at) / RFU RCAN1 (11760418_a_at) / Fold change /veh RCAN1 (11760418_a_at) / RFU FAM167A (11723789_a_at) / Fold change /veh FAM167A (11723789_a_at) / RFU FAM26E (11764081_at) / Fold change /veh FAM26E (11764081_at) / RFU ISYNA1 (11749810_s_at) / Fold change /veh ISYNA1 (11749810_s_at) / RFU ACY1 (11761880_at) / Fold change /veh ACY1 (11761880_at) / RFU 11764098_at / Fold change /veh 11764098_at / RFU SAMD14 (11745864_x_at) / Fold change /veh SAMD14 (11745864_x_at) / RFU NPB (11741838_a_at) / Fold change /veh NPB (11741838_a_at) / RFU TMPRSS6 (11731388_a_at) / Fold change /veh TMPRSS6 (11731388_a_at) / RFU KRTAP10-2 (11738614_at) / Fold change /veh KRTAP10-2 (11738614_at) / RFU ARHGAP8 /// PRR5-ARHGAP8 (11727945_x_at) / Fold change /veh ARHGAP8 /// PRR5-ARHGAP8 (11727945_x_at) / RFU KRTAP5-7 /// NADSYN1 (11734609_at) / Fold change /veh KRTAP5-7 /// NADSYN1 (11734609_at) / RFU RASL12 (11751679_a_at) / Fold change /veh RASL12 (11751679_a_at) / RFU CDKN2B (11736163_a_at) / Fold change /veh CDKN2B (11736163_a_at) / RFU PRF1 (11729649_at) / Fold change /veh PRF1 (11729649_at) / RFU, ZNF638 /// ZNF638-IT1 / Fold change vs veh, ZNF638 /// ZNF638-IT1 / RFU, PANK3 / Fold change vs veh, PANK3 / RFU, SH3YL1 / Fold change vs veh, SH3YL1 / RFU, ZEB2 / Fold change vs veh, ZEB2 / RFU, NRIP1 / Fold change vs veh, NRIP1 / RFU, PTTG1IP / Fold change vs veh, PTTG1IP / RFU, CAPN2 / Fold change vs veh, CAPN2 / RFU, MED14 / Fold change vs veh, MED14 / RFU, SNORA58 / Fold change vs veh, SNORA58 / RFU, C1orf63 / Fold change vs veh, C1orf63 / RFU, LRRFIP1 / Fold change vs veh, LRRFIP1 / RFU, NDUFAF7 / Fold change vs veh, NDUFAF7 / RFU, SLC12A2 / Fold change vs veh, SLC12A2 / RFU, IBTK / Fold change vs veh, IBTK / RFU, ESF1 / Fold change vs veh, ESF1 / Fold change vs veh, TMEM50B / RFU, TAOK1 / Fold change vs veh, TAOK1 / RFU, ACBD3 / Fold change vs veh, ACBD3 / RFU, TMA16 / Fold change vs veh, TMA16 / RFU, RWDD3 / Fold change vs veh, RWDD3 / RFU, BCAT1 / Fold change vs veh, BCAT1 / RFU, EDEM3 / Fold change vs veh, EDEM3 / RFU, TMEM33 / Fold change vs veh, TMEM33 / RFU, WDR75 / Fold change vs veh, WDR75 / RFU, AHCTF1 / Fold change vs veh, AHCTF1 / RFU, TFRC / Fold change vs veh, TFRC / RFU, ZDHHC17 / Fold change vs veh, ZDHHC17 / RFU, NOM1 / Fold change vs veh, NOM1 / RFU, ARL8B / Fold change vs veh, ARL8B / RFU, ZBTB11 / Fold change vs veh, ZBTB11 / RFU, TAMM41 / Fold change vs veh, TAMM41 / RFU, KIAA1704 /// LOC100996395 / Fold change vs veh, KIAA1704 /// LOC100996395 / RFU, ING1 / Fold change vs veh, ING1 / RFU, TRMT61B / Fold change vs veh, TRMT61B / RFU, FUBP3 / Fold change vs veh, FUBP3 / RFU, TP53 / Fold change vs veh, TP53 / RFU, TNKS2 / Fold change vs veh, TNKS2 / RFU, ZFP14 / Fold change vs veh, ZFP14 / RFU, ACTR2 / Fold change vs veh, ACTR2 / RFU, PPP3R1 / Fold change vs veh, PPP3R1 / RFU, PIK3R1 / Fold change vs veh, PIK3R1 / RFU, HNRNPA1 / Fold change vs veh, HNRNPA1 / RFU, RNF170 / Fold change vs veh, RNF170 / RFU, ZNF28 / Fold change vs veh, ZNF28 / RFU, RNGTT / Fold change vs veh, RNGTT / RFU, OGT / Fold change vs veh, OGT / RFU, BRD1 / Fold change vs veh, BRD1 / RFU, MARS / Fold change vs veh, MARS / RFU, ZNF655 / Fold change vs veh, ZNF655 / RFU, FAHD1 / Fold change vs veh, FAHD1 / RFU, BDP1 / Fold change vs veh, BDP1 / RFU, LRRCC1 / Fold change vs veh, LRRCC1 / RFU, ARID1A / Fold change vs veh, ARID1A / RFU, ZNF146 / Fold change vs veh, ZNF146 / RFU, ZNF330 / Fold change vs veh, ZNF330 / RFU, GPN3 / Fold change vs veh, GPN3 / RFU, C9orf123 / Fold change vs veh, C9orf123 / RFU, N4BP2L2 / Fold change vs veh, N4BP2L2 / RFU, ARFIP1 / Fold change vs veh, ARFIP1 / RFU, FAM179B / Fold change vs veh, FAM179B / RFU, BCL10 / Fold change vs veh, BCL10 / RFU, UHRF1BP1L / Fold change vs veh, UHRF1BP1L / RFU, BET1 / Fold change vs veh, BET1 / RFU, CNOT2 / Fold change vs veh, CNOT2 / RFU, ZNF268 / Fold change vs veh, ZNF268 / Fold change vs veh, ZNF507 / RFU, DGCR2 / Fold change vs veh, DGCR2 / RFU, WDSUB1 / Fold change vs veh, WDSUB1 / Fold change vs veh, HSP90B1 /// MIR3652 / RFU, ADSS / Fold change vs veh, ADSS / RFU, GK / Fold change vs veh, GK / RFU, ZNF148 / Fold change vs veh, ZNF148 / RFU, TAF9 / Fold change vs veh, TAF9 / RFU, SLC1A5 / Fold change vs veh, SLC1A5 / RFU, SLMO2 / Fold change vs veh, SLMO2 / RFU, ABCC4 / Fold change vs veh, ABCC4 / RFU, LOC101060439 /// RAP1B / Fold change vs veh, LOC101060439 /// RAP1B / RFU, RFX7 / Fold change vs veh, RFX7 / RFU, GTPBP10 / Fold change vs veh, GTPBP10 / RFU, CNEP1R1 / Fold change vs veh, CNEP1R1 / RFU, BIVM-ERCC5 /// ERCC5 / Fold change vs veh, BIVM-ERCC5 /// ERCC5 / RFU, ILF3 / Fold change vs veh, ILF3 / RFU 11762660_at / Fold change /veh 11762660_at / RFU VCAN (11757783_s_at) / Fold change /veh VCAN (11757783_s_at) / RFU DDX43 (11728927_at) / Fold change /veh DDX43 (11728927_at) / RFU KRT8 (11758188_x_at) / Fold change /veh KRT8 (11758188_x_at) / RFU NKD1 (11759106_at) / Fold change /veh NKD1 (11759106_at) / RFU SRD5A1 (11742802_a_at) / Fold change /veh SRD5A1 (11742802_a_at) / RFU TPSAB1 /// TPSB2 (11721975_s_at) / Fold change /veh TPSAB1 /// TPSB2 (11721975_s_at) / RFU GSTM3 (11746129_a_at) / Fold change /veh GSTM3 (11746129_a_at) / RFU IL23R (11737362_x_at) / Fold change /veh IL23R (11737362_x_at) / RFU TMEM51 (11727254_a_at) / Fold change /veh TMEM51 (11727254_a_at) / RFU PIWIL2 (11732686_x_at) / Fold change /veh PIWIL2 (11732686_x_at) / RFU ORM1 (11744905_x_at) / Fold change /veh ORM1 (11744905_x_at) / RFU CCDC152 (11743942_at) / Fold change /veh CCDC152 (11743942_at) / RFU ECM1 (11717891_a_at) / Fold change /veh ECM1 (11717891_a_at) / RFU IL23R (11748794_a_at) / Fold change /veh IL23R (11748794_a_at) / RFU TNFAIP8L3 (11732012_x_at) / Fold change /veh TNFAIP8L3 (11732012_x_at) / RFU MBOAT4 (11741988_at) / Fold change /veh MBOAT4 (11741988_at) / RFU 11764193_at / Fold change /veh 11764193_at / RFU TMEM53 (11763286_at) / Fold change /veh TMEM53 (11763286_at) / RFU MAGEB2 (11727129_at) / Fold change /veh MAGEB2 (11727129_at) / RFU TMEM200A (11744735_a_at) / Fold change /veh TMEM200A (11744735_a_at) / RFU CCDC152 (11751479_a_at) / Fold change /veh CCDC152 (11751479_a_at) / RFU FAM211A (11726209_a_at) / Fold change /veh FAM211A (11726209_a_at) / RFU RGS16 (11746705_a_at) / Fold change /veh RGS16 (11746705_a_at) / RFU VCAN (11755009_s_at) / Fold change /veh VCAN (11755009_s_at) / RFU RHOB (11743442_s_at) / Fold change /veh RHOB (11743442_s_at) / RFU RGS16 (11720943_a_at) / Fold change /veh RGS16 (11720943_a_at) / RFU RGS16 (11720944_at) / Fold change /veh RGS16 (11720944_at) / RFU, VPS4B / Fold change vs veh, VPS4B / RFU, CREB1 / Fold change vs veh, CREB1 / RFU, DNAJC13 / Fold change vs veh, DNAJC13 / RFU, GNAQ / Fold change vs veh, GNAQ / RFU, CDK5R1 / Fold change vs veh, CDK5R1 / RFU, ZRANB3 / Fold change vs veh, ZRANB3 / RFU, CUL4A / Fold change vs veh, CUL4A / RFU, CCNY / Fold change vs veh, CCNY / RFU, UFL1 / Fold change vs veh, UFL1 / RFU, COG3 / Fold change vs veh, COG3 / RFU, DIAPH2 / Fold change vs veh, DIAPH2 / RFU, SKA2 / Fold change vs veh, SKA2 / RFU, AFF3 / Fold change vs veh, AFF3 / RFU, LMF1 / Fold change vs veh, LMF1 / RFU, IPO11 / Fold change vs veh, IPO11 / RFU, DFFB / Fold change vs veh, DFFB / RFU, FOXP1 / Fold change vs veh, FOXP1 / RFU, CARD8 / Fold change vs veh, CARD8 / RFU, STRN3 / Fold change vs veh, STRN3 / RFU, ADK / Fold change vs veh, ADK / RFU, RASSF2 / Fold change vs veh, RASSF2 / RFU, WIPF1 / Fold change vs veh, WIPF1 / RFU, LARP1B / Fold change vs veh, LARP1B / RFU, RASA1 / Fold change vs veh, RASA1 / RFU, RB1 / Fold change vs veh, RB1 / RFU, PPFIA1 / Fold change vs veh, PPFIA1 / RFU, MAT2A / Fold change vs veh, MAT2A / RFU, CCT5 / Fold change vs veh, CCT5 / RFU, WDR92 / Fold change vs veh, WDR92 / RFU, CUX1 / Fold change vs veh, CUX1 / RFU, TTC7A / Fold change vs veh, TTC7A / RFU, TMEM135 / Fold change vs veh, TMEM135 / RFU, DEPTOR / Fold change vs veh, DEPTOR / RFU, CPM / Fold change vs veh, CPM / RFU, DNAJB6 / Fold change vs veh, DNAJB6 / RFU, CACNA2D3 / Fold change vs veh, CACNA2D3 / RFU, DTX4 / Fold change vs veh, DTX4 / RFU, TFCP2 / Fold change vs veh, TFCP2 / RFU, GMCL1 /// GMCL1P1 / Fold change vs veh, GMCL1 /// GMCL1P1 / RFU, AEBP2 / Fold change vs veh, AEBP2 / RFU, SNHG1 /// SNORD22 /// SNORD25 /// SNORD26 /// SNORD27 /// SNORD28 /// SNORD29 /// SNORD31 / Fold change vs veh, SNHG1 /// SNORD22 /// SNORD25 /// SNORD26 /// SNORD27 /// SNORD28 /// SNORD29 /// SNORD31 / Fold change (Aza/veh), C12orf56 (ProbeSet 11735607_a_at) / Fold change (ACY-1035/veh), C12orf56 (ProbeSet 11735607_a_at) / Fold change (Aza/veh), FGFR1OP (ProbeSet 11751329_s_at) / Fold change (ACY-1035/veh), FGFR1OP (ProbeSet 11751329_s_at) / Fold change (Aza/veh), VPS36 (ProbeSet 11739960_a_at) / Fold change (ACY-1035/veh), VPS36 (ProbeSet 11739960_a_at) / RFU SYPL1 (11715823_x_at) / Fold change /veh SYPL1 (11715823_x_at) / RFU IGFBP7 (11715501_s_at) / Fold change /veh IGFBP7 (11715501_s_at) / RFU REEP3 (11722064_at) / Fold change /veh REEP3 (11722064_at) / RFU IGLL1 (11728026_x_at) / Fold change /veh IGLL1 (11728026_x_at): dose or concentration left out as unconfirmed
Conditions: MV-4-11 cells, 48 hours

Nc1ccc(-c2cccs2)cc1NC(=O)c1ccc2c(c1)cc(C1CC1)n2CCN1CCOCC1 [ACY-1035]
Fold change /veh SAMD14 (11745864_x_at): 1.01

— publication PMC5218480 (PLoS ONE, 2017)
